≈ marks a conversion by molar mass, not a printed value. Marks after values point to notes of the source that are not given here.
Key:
[1] = tested on: Staphylococcus aureus ATCC 6538 adherent organisms (biofilm); test: MIC/MBC in adherent-cell biofilm of S. aureus ATCC 6538; format: cell-based; details: for Adherent organisms (biofilm) MIC^b: S. aureus ATCC 6538, 20 h; for Adherent organisms (biofilm) MBC^b: S. aureus ATCC 6538, regrowth 20 h in antibiotic-free MHB
Protocol: An adherent biofilm for susceptibility testing was formed using a clinical isolate of Staphylococcus aureus (ATCC 6538). S. aureus biofilms were prepared in a tissue culture non-treated polystyrene 96-well plate (Corning) and washed with phosphate-buffered saline (PBS) to remove unbound bacteria. Subsequently, serial twofold dilutions of the compounds in MHB were added to wells containing adherent organisms. The polystyrene plates were incubated for 20 h at 37° C. The MIC was taken as the lowest drug concentration at which observable growth was inhibited.

MRSA = test: Time-kill assay against MRSA in MHB
[2] = tested on: C. elegans infected with MRSA; test: Treatment of C. elegans infected with MRSA; details: MRSA-infected worms, 100 μM; for Log CFU/worm: 16 hours treatment; for Log Reduction: versus DMSO control
S. aureus HMGR = S. aureus HMGR (Staphylococcus aureus, UniProt Q9FD86); test: biochemical
Chain of S. aureus HMGR (Q9FD86 entry or part of it): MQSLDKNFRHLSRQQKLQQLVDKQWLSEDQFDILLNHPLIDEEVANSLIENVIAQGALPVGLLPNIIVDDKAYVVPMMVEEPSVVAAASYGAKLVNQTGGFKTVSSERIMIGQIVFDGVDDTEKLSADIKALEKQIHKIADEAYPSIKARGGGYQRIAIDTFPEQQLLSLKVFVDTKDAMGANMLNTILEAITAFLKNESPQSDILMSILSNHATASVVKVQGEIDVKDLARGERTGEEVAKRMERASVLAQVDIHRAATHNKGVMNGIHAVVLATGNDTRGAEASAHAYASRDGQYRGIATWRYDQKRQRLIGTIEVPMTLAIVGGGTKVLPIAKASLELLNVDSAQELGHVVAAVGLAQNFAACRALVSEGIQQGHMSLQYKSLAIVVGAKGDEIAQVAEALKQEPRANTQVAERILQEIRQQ

J774A.1 cells = test: In vitro cell viability/cytotoxicity MTS assay; format: cell-based; details: 100 μM, 24 hours
Protocol: Cytotoxicity of the compounds was evaluated using J774A.1 cells (mitochondrial function) in the CellTiter 96® AQueous Non-Radioactive Cell Proliferation Assay (Promega). […] Formazan is measured by measuring the absorbance at 490 nm. Briefly, ˜2×10^4 J774A.1 cells suspended in 200 μL DMEM supplemented with 10% fetal bovine serum (FBS), L-glutamine, NaHCO3, pyridoxine-HCl, and […] glucose and preserved with 1% penicillin-streptomycin solution were seeded in 96-well plates and incubated at 37° C. in a 5% CO2 atmosphere. The cells were cultured for 24 hours (60% confluency) before the assays. The J774A.1 cells were further incubated with 100 μM of compounds (2f, […], 2j, and 2e) and DMSO as a control for 24 hours. The culture media was discarded, and the cells in each well were washed with PBS and re-suspended with 100 μL of cell culture media prior to addition of the assay reagent. The plates were incubated for 4 hours at 37° C. in a humidified 5% CO2 atmosphere. The absorbance at 490 nm was recorded using a 96-well Elisa plate reader (SoftMax ProInc., USA). Results were expressed as the percentage mean absorbance by cells upon incubation with various treatments (compounds 2f, 2j, 2i, and 2e) with respect to incubation with DMSO. The results are expressed as means from six measurements±SD.

[3] = tested on: Bacillus anthracis Sterne strain (34F2); format: cell-based; details: for inhibition of growth in initial screen: 100 μM; for Bacillus anthracis MBC / Bacillus anthracis MIC: MHB
Bacillus subtilis = test: Screen and MIC/MBC against Bacillus subtilis; format: cell-based; details: for inhibition of growth in initial screen: 100 μM; for Bacillus subtilis MBC / Bacillus subtilis MIC: MHB
Bacillus cereus = test: Screen and MIC/MBC against Bacillus cereus; format: cell-based; details: for inhibition of growth in initial screen: 100 μM; for Bacillus cereus MBC / Bacillus cereus MIC: MHB
Listeria monocytogenes = test: Screen and MIC/MBC against Listeria monocytogenes; format: cell-based; details: for inhibition of growth in initial screen: 100 μM; for Listeria monocytogenes MBC / Listeria monocytogenes MIC: MHB
Brucella abortus = format: cell-based; details: for inhibition of growth in initial screen: 100 μM; for Brucella abortus (single value, head does not say MIC or MBC): MHB
[4] = tested on: Candida albicans ATCC 18804; test: MIC/MFC against Candida albicans in YM broth; format: cell-based; details: yeast medium broth
Protocol: Antifungal activities of 22 HMG-CoA Reductase inhibitors were initially tested at 100 μM concentration against Candida albicans ATCC 18804.

[5] = tested on: Staphylococcus aureus ATCC 6538 planktonic organisms (not in biofilm); test: MIC/MBC against planktonic S. aureus ATCC 6538; format: cell-based
[6] = tested on: vancomycin resistant Enterococcus faecalis (VRE) ATCC 51299; test: MIC/MBC micro dilution against VRE; details: VRE ATCC 51299, MHB, 20 hours
[7] = tested on: methicillin-resistant Staphylococcus aureus (MRSA) ATCC 43300; test: MIC/MBC micro dilution against MRSA; details: for MRSA MBC: MRSA ATCC 43300, MHB, 20 hours, Table 2; for MBC / MIC: Staphylococcus aureus
[8] = tested on: vancomycin intermediate Staphylococcus aureus (VISA) NRS1; test: MIC/MBC against clinical VISA isolate
[9] = tested on: clinical methicillin-resistant Staphylococcus aureus (MRSA) isolates; test: MIC/MBC against clinical MRSA isolates
[10] = tested on: C. elegans infected with VRE; test: Treatment of C. elegans infected with VRE; details: VRE-infected worms, 100 μM
E. faecalis II-HMGR = E. faecalis II-HMGR (Enterococcus faecalis, UniProt Q9FD70); test: biochemical

CN[C@H](CC(C)C)C(=O)N[C@H]1C(=O)N[C@@H](CC(N)=O)C(=O)N[C@H]2C(=O)N[C@H]3C(=O)N[C@H](C(=O)N[C@H](C(=O)O)c4cc(O)cc(O)c4-c4cc3ccc4O)[C@H](O)c3ccc(c(Cl)c3)Oc3cc2cc(c3O[C@@H]2O[C@H](CO)[C@@H](O)[C@H](O)[C@H]2O[C@H]2C[C@](C)(N)[C@H](O)[C@H](C)O2)Oc2ccc(cc2Cl)[C@H]1O [Vancomycin, vancomycin, reference compound]
Adherent organisms (biofilm) MIC^b [1]: 2 µM
Adherent organisms (biofilm) MBC^b [1]: 8 µM
time-kill of MRSA cells (MRSA; 3× MIC): failed to reduce the number of CFU by 3-log10 within a 10 hour window
Log CFU/worm [2]: 3.26 ± 0.20 Log CFU/worm
Log Reduction [2]: 1.78*

CC(C)CCCCc1ccc(NS(=O)(=O)c2ccc(O)c(C(=O)O)c2)cc1 [Compound 2j, 2-hydroxy-5-[N-(4-(5-methylhexyl)phenyl)sulfamoyl]benzoic acid]
IC50 (S. aureus HMGR): 22 µM
percentage mean absorbance at 490 nm (MTS) versus DMSO (J774A.1 cells): no significant differences in percentage mean absorption
inhibition of growth in initial screen [3]: showed inhibition of growth
Bacillus anthracis MBC [3]: 32/32
Bacillus anthracis MIC [3]: 32/32
inhibition of growth in initial screen (Bacillus subtilis): showed inhibition of growth
Bacillus subtilis MBC (Bacillus subtilis): 32/32
Bacillus subtilis MIC (Bacillus subtilis): 32/32
inhibition of growth in initial screen (Bacillus cereus): showed inhibition of growth
Bacillus cereus MBC (Bacillus cereus): 64/64
Bacillus cereus MIC (Bacillus cereus): 64/64
inhibition of growth in initial screen (Listeria monocytogenes): showed inhibition of growth
Listeria monocytogenes MBC (Listeria monocytogenes): 128/>128
Listeria monocytogenes MIC (Listeria monocytogenes): 128/>128
inhibition of growth in initial screen (Brucella abortus): showed inhibition of growth
Brucella abortus (single value, head does not say MIC or MBC) (Brucella abortus): 64 µM
Candida albicans MFC [4]: 128/>128
Candida albicans MIC [4]: 128/>128
Planktonic organisms (not in biofilm) MBC [5]: 64 µM
Planktonic organisms (not in biofilm) MIC [5]: 64 µM
Adherent organisms (biofilm) MIC^b [1]: 128 µM
Adherent organisms (biofilm) MBC^b [1]: 128 µM
VRE MBC [6]: 128/128
MRSA MBC [7]: 64/64
MBC [7]: 64 µM (≈ 25.1 µg/mL)
MIC [7]: 64 µM (≈ 25.1 µg/mL)
MBC [8]: 16 µM (≈ 6.26 µg/mL)
MIC [8]: 16 µM (≈ 6.26 µg/mL)
MBC ([9]; MRSA / NRS123 / USA400): 32 µM (≈ 12.5 µg/mL)
MIC ([9]; MRSA / NRS123 / USA400): 16 µM (≈ 6.26 µg/mL)
MBC ([9]; MRSA / NRS382 / USA100): 32 µM (≈ 12.5 µg/mL)
MIC ([9]; MRSA / NRS382 / USA100): 16 µM (≈ 6.26 µg/mL)
MBC ([9]; MRSA / NRS383 / USA200): 32 µM (≈ 12.5 µg/mL)
MIC ([9]; MRSA / NRS383 / USA200): 16 µM (≈ 6.26 µg/mL)
MBC ([9]; MRSA / NRS384 / USA300): 32 µM (≈ 12.5 µg/mL)
MIC ([9]; MRSA / NRS384 / USA300): 16 µM (≈ 6.26 µg/mL)
MBC ([9]; MRSA / NRS385 / USA500): 16 µM (≈ 6.26 µg/mL)
MIC ([9]; MRSA / NRS385 / USA500): 16 µM (≈ 6.26 µg/mL)
MBC ([9]; MRSA / NRS386 / USA700): 16 µM (≈ 6.26 µg/mL)
MIC ([9]; MRSA / NRS386 / USA700): 16 µM (≈ 6.26 µg/mL)
MBC ([9]; MRSA / NRS387 / USA800): 32 µM (≈ 12.5 µg/mL)
MIC ([9]; MRSA / NRS387 / USA800): 16 µM (≈ 6.26 µg/mL)
MBC ([9]; MRSA / NRS483): 32 µM (≈ 12.5 µg/mL)
MIC ([9]; MRSA / NRS483): 16 µM (≈ 6.26 µg/mL)
MBC ([9]; MRSA / NRS484): 32 µM (≈ 12.5 µg/mL)
MIC ([9]; MRSA / NRS484): 16 µM (≈ 6.26 µg/mL)

CCCCCCCCCCc1ccc(NS(=O)(=O)c2ccc(O)c(C(=O)O)c2)cc1 [Compound 2f, 5-[N-(4-decylphenyl)sulfamoyl]-2-hydroxybenzoic acid]
IC50 (S. aureus HMGR): 7.2 µM
percentage mean absorbance at 490 nm (MTS) versus DMSO (J774A.1 cells): no significant differences in percentage mean absorption
inhibition of growth in initial screen [3]: showed inhibition of growth
Bacillus anthracis MBC [3]: 16/16
Bacillus anthracis MIC [3]: 16/16
inhibition of growth in initial screen (Bacillus subtilis): showed inhibition of growth
Bacillus subtilis MBC (Bacillus subtilis): 16/16
Bacillus subtilis MIC (Bacillus subtilis): 16/16
inhibition of growth in initial screen (Bacillus cereus): showed inhibition of growth
Bacillus cereus MBC (Bacillus cereus): 16/16
Bacillus cereus MIC (Bacillus cereus): 16/16
inhibition of growth in initial screen (Listeria monocytogenes): showed inhibition of growth
Listeria monocytogenes MBC (Listeria monocytogenes): > 128 µM
Listeria monocytogenes MIC (Listeria monocytogenes): 64 µM
inhibition of growth in initial screen (Brucella abortus): showed inhibition of growth
Brucella abortus (single value, head does not say MIC or MBC) (Brucella abortus): 128 µM
Candida albicans MFC [4]: 16/16
Candida albicans MIC [4]: 16/16
Planktonic organisms (not in biofilm) MBC [5]: 16 µM
Planktonic organisms (not in biofilm) MIC [5]: 16 µM
Adherent organisms (biofilm) MIC^b [1]: 64 µM
Adherent organisms (biofilm) MBC^b [1]: 128 µM
VRE MBC [6]: 32/32
MRSA MBC [7]: 16/16
MBC [7]: 16 µM (≈ 6.94 µg/mL)
MIC [7]: 16 µM (≈ 6.94 µg/mL)
time-kill of MRSA cells (MRSA; 1× MIC or 2× MIC): four hours are required to eliminate bacteria completely
time-kill of MRSA cells (MRSA; 3× MIC): complete elimination of MRSA cells within a two-hour window
MBC [8]: 4 µM (≈ 1.73 µg/mL)
MIC [8]: 4 µM (≈ 1.73 µg/mL)
MBC ([9]; MRSA / NRS123 / USA400): 16 µM (≈ 6.94 µg/mL)
MIC ([9]; MRSA / NRS123 / USA400): 4 µM (≈ 1.73 µg/mL)
MBC ([9]; MRSA / NRS382 / USA100): 8 µM (≈ 3.47 µg/mL)
MIC ([9]; MRSA / NRS382 / USA100): 8 µM (≈ 3.47 µg/mL)
MBC ([9]; MRSA / NRS383 / USA200): 4 µM (≈ 1.73 µg/mL)
MIC ([9]; MRSA / NRS383 / USA200): 4 µM (≈ 1.73 µg/mL)
MBC ([9]; MRSA / NRS384 / USA300): 8 µM (≈ 3.47 µg/mL)
MIC ([9]; MRSA / NRS384 / USA300): 4 µM (≈ 1.73 µg/mL)
MBC ([9]; MRSA / NRS385 / USA500): 8 µM (≈ 3.47 µg/mL)
MIC ([9]; MRSA / NRS385 / USA500): 4 µM (≈ 1.73 µg/mL)
MBC ([9]; MRSA / NRS386 / USA700): 8 µM (≈ 3.47 µg/mL)
MIC ([9]; MRSA / NRS386 / USA700): 4 µM (≈ 1.73 µg/mL)
MBC ([9]; MRSA / NRS387 / USA800): 8 µM (≈ 3.47 µg/mL)
MIC ([9]; MRSA / NRS387 / USA800): 4 µM (≈ 1.73 µg/mL)
MBC ([9]; MRSA / NRS483): 8 µM (≈ 3.47 µg/mL)
MIC ([9]; MRSA / NRS483): 4 µM (≈ 1.73 µg/mL)
MBC ([9]; MRSA / NRS484): 8 µM (≈ 3.47 µg/mL)
MIC ([9]; MRSA / NRS484): 4 µM (≈ 1.73 µg/mL)
Log CFU/worm ([10]; 16 hours treatment): 0.70 ± 0.37 Log CFU/worm
Log Reduction ([10]; versus DMSO control): 4.20*
Log CFU/worm [2]: 2.33 ± 0.09 Log CFU/worm
Log Reduction [2]: 2.71*

CCCCc1ccc(NS(=O)(=O)c2ccc(O)c(C(=O)O)c2)cc1 [Compound 1, 5-[N-(4-butylphenyl)sulfamoyl]-2-hydroxybenzoic acid]
IC50 (S. aureus HMGR): 91 ± 5 µM
IC50 (E. faecalis II-HMGR): 5 µM
